Assays:
[1] = target: farnesyl protein transferase (Homo sapiens, UniProt P49354+P49356); experiment: In vitro assay for inhibition of farnesyl protein transferase; type: biochemical; conditions: negative log value of the IC50-value; IC50 = concentration needed to reduce the product of the enzymatic reaction to 50% of the control; read-out: Enzyme activity pIC50 (converted)
Description: An in vitro assay for inhibition of farnesyl transferase was performed essentially as described in WO 98/40383, pages 33-34. When appropriate, IC50-values (concentration of the drug, needed to reduce the product of the enzymatic reaction, to 50% of the conrol) were computed using probit analysis for graded data (Finney, D. J., Probit Analuses, 2nd Ed. Chapter 10, Graded Responses, Cambridge Univerity Press, Cambridge 1962). Herein (see table F-3) the effects of test compounds are expressed as pIC50 (the negative log value of the IC50-value). Also the intermediate compounds described in the table F-1 show activity in the in vitro assay for inhibition of farnesyl protein transferase.

In the case of `Cn1cnnc1C(c1ccc(I)cc1)c1cc2c3c(c1)c(-c1cccc(Cl)c1)cc(=O)n3CC2` (stereo not shown) (hydrate or solvate) [Compound 1, 6-(3-chlorophenyl)-1,2-dihydro-8-[(4-iodophenyl)(4-methyl-4H-1,2,4-triazol-3-yl)methyl]-4H-pyrrolo[3,2,1-ij]quinolin-4-one], the melting point is reported as 194 °C.
With `Cn1cnnc1C(c1ccc(I)cc1)c1cc2c3c(c1)c(-c1cccc(Cl)c1)cc(=O)n3CC2` (stereo not shown) [Compound 1, 6-(3-chlorophenyl)-1,2-dihydro-8-[(4-iodophenyl)(4-methyl-4H-1,2,4-triazol-3-yl)methyl]-4H-pyrrolo[3,2,1-ij]quinolin-4-one] the IC50 [1] was 21.4 nM.
Work on `Cn1cnnc1C(c1ccc(C#N)cc1)c1cc2c3c(c1)c(-c1cccc(Cl)c1)cc(=O)n3CC2` (stereo not shown) [Compound 2, 4-[[6-(3-chlorophenyl)-1,2-dihydro-4-oxo-4H-pyrrolo[3,2,1-ij]quinolin-8-yl](4-methyl-4H-1,2,4-triazol-3-yl)methyl]-benzonitrile] yielded a melting point of 174 °C and an IC50 [1] of 2.02 nM.
Compound `Cn1cnnc1C(O)(c1ccc(Cl)cc1)c1cc2c3c(c1)c(-c1cccc(Cl)c1)cc(=O)n3CCC2` (stereo not shown) [Compound 3, 7-(3-chlorophenyl)-9-[(4-chlorophenyl)hydroxy(4-methyl-4H-1,2,4-triazol-3-yl)methyl]-2,3-dihydro-1H,5H-benzo[ij]quinolizin-5-one] has a melting point of 183 °C and an IC50 [1] of 8.18 nM.
`Cn1cnnc1C(O)(c1ccc(F)cc1)c1cc2c3c(c1)c(-c1cccc(Cl)c1)cc(=O)n3CC2` (stereo not shown) [Compound 4, 6-(3-chlorophenyl)-8-[(4-fluorophenyl)hydroxy(4-methyl-4H-1,2,4-triazol-3-yl)methyl]-1,2-dihydro-4H-pyrrolo[3,2,1-ij]quinolin-4-one] gave an IC50 [1] of 5.77 nM.
In the case of `CC(=O)NC(c1ccc(F)cc1)(c1cc2c3c(c1)c(-c1cccc(Cl)c1)cc(=O)n3CC2)c1nncn1C` (stereo not shown) [Compound 5, N-[[6-(3-chlorophenyl)-1,2-dihydro-4-oxo-4H-pyrrolo[3,2,1-ij]quinolin-8-yl](4-fluorophenyl)(4-methyl-4H-1,2,4-triazol-3-yl)methyl]-acetamide], the melting point is reported as 196 °C and the IC50 [1] is reported as 3.4 nM.
For `COC(c1ccc(Cl)cc1)(c1cc2c3c(c1)c(-c1cccc(Cl)c1)cc(=O)n3CCC2)c1nncn1C` (stereo not shown) [Compound 6, 7-(3-chlorophenyl)-9-[(4-chlorophenyl)methoxy(4-methyl-4H-1,2,4-triazol-3-yl)methyl]-2,3-dihydro-1H,5H-benzo[ij]quinolizin-5-one], the melting point was 132 °C and the IC50 [1] was under 100 nM.
Compound `Cn1cnnc1C(OCCO)(c1ccc(F)cc1)c1cc2c3c(c1)c(-c1cccc(Cl)c1)cc(=O)n3CC2` (stereo not shown) [Compound 7, 6-(3-chlorophenyl)-8-[(4-fluorophenyl)(2-hydroxyethoxy)(4-methyl-4H-1,2,4-triazol-3-yl)methyl]-1,2-dihydro-4H-pyrrolo[3,2,1-ij]quinolin-4-one] has a melting point of 138 °C and an IC50 [1] of 3.95 nM.
Compound `Cn1cnnc1C(c1ccc(F)cc1)(c1cc2c3c(c1)c(-c1cccc(Cl)c1)cc(=O)n3CC2)n1ccnc1` (stereo not shown) [Compound 8, 6-(3-chlorophenyl)-8-[(4-fluorophenyl)-1H-imidazol-1-yl(4-methyl-4H-1,2,4-triazol-3-yl)methyl]-1,2-dibydro-4H-pyrrolo[3,2,1-ij]quinolin-4-one] has an IC50 [1] of 3.84 nM.
Work on `Cn1cnnc1C(N)(c1ccc(F)cc1)c1cc2c3c(c1)c(-c1cccc(Cl)c1)cc(=O)n3CC2` (stereo not shown) [Compound 9, 8-[amino(4-fluorophenyl)(4-methyl-4H-1,2,4-triazol-3-yl)methyl]-6-(3-chlorophenyl)-1,2-dihydro-4H-pyrrolo[3,2,1-ij]quinolin-4-one] yielded an IC50 [1] of 2.98 nM.
Compound `COC(c1ccc(F)cc1)(c1cc2c3c(c1)c(-c1cccc(Cl)c1)cc(=O)n3CC2)c1nncn1C` (stereo not shown) [Compound 10, 6-(3-chlorophenyl)-8-[(4-fluorophenyl)methoxy(4-methyl-4H-1,2,4-triazol-3-yl)methyl]-1,2-dihydro-4H-pyrrolo[3,2,1-ij]quinolin-4-one] has an IC50 [1] of 29.3 nM.
Work on `Cn1cnnc1C(O)(c1ccc(Cl)cc1)c1cc2c3c(c1)c(-c1ccc(Cl)cc1)cc(=O)n3CC2` (stereo not shown) [Compound 11] yielded an IC50 [1] of under 100 nM.
In the case of `Cn1cnnc1C(O)(c1ccc(Cl)cc1)c1cc2c3c(c1)c(-c1cccc(Cl)c1)c(Br)c(=O)n3CC2` (stereo not shown) [Compound 12], the IC50 [1] is reported as over 100 nM.
Compound `Cn1cnnc1C(O)(c1ccc(Br)cc1)c1cc2c3c(c1)c(-c1cccc(Br)c1)cc(=O)n3CC2` (stereo not shown) [Compound 13] has an IC50 [1] of 5.86 nM.
